Publication PMC7433713, “Beyond Single Nucleotide Polymorphisms: CYP3A5^∗3^∗6^∗7 Composite and ABCB1 Haplotype Associations to Tacrolimus Pharmacokinetics in Black and White Renal Transplant Recipients” (Frontiers in Genetics, 2020)
Read-outs that look alike come from different tables or passages of the source. Each block holds one compound with its values, some of them ahead of it.

Columns and labels:
[1] = MPA trough at 12 h in study patients by CYP3A5*3*6*7 metabolic group; details: both sexes, human, in vivo, oral, ECMPS at steady state
Method: (§1) Tacrolimus doses were adjusted to 4–9 ng/ml troughs based upon time post-transplant and clinical response using a program-specific minimization protocol. ECMPS was dose adjusted based upon clinical response. Estimated glomerular filtration rate (e-GFR) was calculated using the four-factor MDRD equation ([Levey et al., 1999]). Medication adherence was verified by transplant nurse clinician and medication adherence assessment by transplant pharmacist at enrollment. Ethnicity for two previous generations was verified prior to study.

clinical = details: both, human, whole blood, oral
Method: (§2) All patients were at steady-state conditions for both tacrolimus and ECMPS. Patients were enrolled only if they had received the same dose of tacrolimus and ECMPS for ≥7 days prior to study. This was assumed to be sufficient to approach steady-state plasma concentrations. Proton pump inhibiters, H2 antagonists and antacids were discontinued at least 36 h prior to study. Patients took immunosuppressives between 5:30 to 6:30 PM prior to study, fasted and abstained from caffeine and alcohol for 12 h prior to study. At 6:00 AM, patients were admitted, vital signs documented and an intravenous angiocatheter inserted. A 0 h sample (∼15 ml) was collected prior to immunosuppressives for drug troughs and laboratory tests (ECMC Clinical Chemistry Laboratory). Oral study medications [(single lot of tacrolimus (Prograf) and ECMPS (Myfortic)] were administered at 7:00 AM. Patients remained upright throughout the study. Standardized low fat meals were provided after 4 h. Antihypertensives were administered after 1.5 h and non-immunosuppressives after 4 h. Blood samples (7 ml) were collected at 0 h and 1, 2, 3, 4, 6, 8, 10, and 12 h after drug administration. Whole blood samples were aliquoted within 30 minutes and stored at −70°C until analysis.
(§3) Given the known linkage among all three ABCB1 SNPs, haplotype analysis was conducted. […] ABCB1 haplotype estimation was determined using the THESIAS program ([Tregouet et al., 2004]; [Tregouet and Garelle, 2007]). THESIAS uses a maximum likelihood algorithm for the simultaneous estimation of haplotype frequencies and their association to tacrolimus pharmacokinetic parameters.
(§4) Tacrolimus troughs and pharmacokinetic concentrations were analyzed within 24 h at the ECMC Clinical Laboratory using the [sequence] tacrolimus assay (Abbott, Abbott Park, IL), a chemiluminescent microparticle immunoassay. The lower limit of detection was 0.5 ng/ml and intraday assay variability was <7%. The calibration standard curve ranged from 1 to 30 ng/ml and quality controls (QC) were 3.0, 12.0, and 25 ng/mL (Bio-Rad, Hercules, CA, United States). The interday coefficient of variation (CV) for each QC was <4% and intra-day CV was <5%. Selected troughs and peaks (N = 40 samples) were analyzed using a validated LCMSMS assay by a CLIA certified external analytical laboratory and compared to the results generated from the [sequence] tacrolimus assay with excellent agreement (R^2 = 0.98). For the tacrolimus LCMSMS assay, the interday and intraday CV were <5% at the low and high concentration QC.
(§5) Pharmacokinetic parameters included area under the concentration versus time curve 0 to 12 h (AUC0–12 h), dose-normalized AUC0–12 (AUC^∗); 12-h trough (C12 h) and peak concentration (Cmax) with dose normalization and time to peak (T max). Oral clearance of tacrolimus was the ratio of dose to AUC0–12 h. Tacrolimus clearances were adjusted for TBW and LBW. AUC0–12 was determined by the linear trapezoidal rule using non-compartmental methods (Phoenix WINNONLIN Version 6.3. Pharsight Corp, Mountain View, Calif). C12 h, Cmax, AUC0–4 h, and AUC0–12 were dose-normalized to 1 mg dose equivalent.

[2] = Tacrolimus pharmacokinetics stratified by CYP3A5 metabolic composite and ABCB1 3435 genotype; type: in vivo, human; details: for Tmax / AUC / Cmax / concentration at 12 h / clearance: human, whole blood, oral; for concentration at 12 h: read-out: C12hr; for clearance: read-out: CL/LBW (converted)
Method: To assess the role of both CYP3A5 and ABCB1 variants on tacrolimus pharmacokinetics the CYP3A5 metabolic composite groups and the ABCB1 3435C > T (rs1045642) were included in a single analysis. […] Significant effects of both CYP3A5 and ABCB1 variants on tacrolimus pharmacokinetics was assessed using multivariate analysis of variance.
All patient demographics and tacrolimus pharmacokinetic parameters were summarized by metabolic composite score for CYP3A5^∗3^∗6^∗7 using the mean and standard deviation for continuous variables. The potential trend between metabolic composite genotypes and association to tacrolimus pharmacokinetics were evaluated using the two-sided Jonckheere-Terpstra test for trends ([Jonckheere, 1983]). Post hoc pairwise comparisons were made using Holm-Bonferroni adjusted Wilcoxon rank sum tests (version 9.3, SAS Institute, Cary, NC). Significant combined effects reflecting composite metabolic CYP3A5 and ABCB1 variants on tacrolimus pharmacokinetics was assessed using multivariate analysis of variance ([Littell et al., 2006]). Significant effects are shown in bold.

[3] = single chromosome; for AUC0–4, phenotypic mean [95% CI] / AUC*, phenotypic mean [95% CI]: race adjusted Thesias; for CL_F, phenotypic mean [95% CI]: sex-adjusted Thesias
Method: as §2, §3, §4, §5

[4] = 12-h steady-state tacrolimus pharmacokinetics by CYP3A5*3*6*7 metabolic composite group in renal transplant recipients; type: in vivo, human
Method: as §1
Loss of protein function due to any one of these variants can occur independent of allelic status at the other two loci; thus assessment of any single SNP may be misleading as an indicator of enzyme function. Patients were assigned a metabolic composite designation as described earlier ([Campagne et al., 2018]) based upon the combined allelic status at all three independent loci (Figure 1). The Extensive Metabolizer phenotype was assigned to individuals with functional genes on both chromosomes. Patients were assigned the Poor Metabolizer phenotype if they were homozygous for the variant allele at any one of the three SNPs and thus CYP3A5 genes on both chromosomes are non-functional (Figure 1C). Patients were designated as Intermediate Metabolizer if they were heterozygous for one loss of function SNP at any of the three loci (Figure 1B). Finally, for patients who were heterozygous at two or more of the SNPs responsible for loss of function, the level of enzyme is dependent upon the arrangement of the variant alleles on each chromosome (Figure 1D). […] For this analysis double heterozygotes (Figure 1D) were conservatively assigned as an Intermediate Metabolizer since individuals could either be poor or intermediate metabolizers.

[5] = ABCB1 3534 CC, CYP3A5 Extensive (N 6)
[6] = ABCB1 3534 CC, CYP3A5 Intermediate (N 10)
[7] = ABCB1 3534 CC, CYP3A5 Poor (N 13)
[8] = ABCB1 3534 CT and TT, CYP3A5 Extensive (N 6)
[9] = ABCB1 3534 CT and TT, CYP3A5 Intermediate (N 10)
[10] = ABCB1 3534 CT and TT, CYP3A5 Poor (N 20)
[11] = 2.35 mg, ABCB1 3534 CT and TT, CYP3A5 Poor (N 20)
[12] = 2.46 mg, ABCB1 3534 CC, CYP3A5 Poor (N 13)
[13] = 3.55 mg, ABCB1 3534 CT and TT, CYP3A5 Intermediate (N 10)
[14] = 4 mg, ABCB1 3534 CC, CYP3A5 Intermediate (N 10)
[15] = 5.08 mg, ABCB1 3534 CT and TT, CYP3A5 Extensive (N 6)
[16] = 5.67 mg, ABCB1 3534 CC, CYP3A5 Extensive (N 6)

concentration at 12 h ([1]; CYP3A5*3*6*7 Extensive group (N 7)): 42 ng/mL
concentration at 12 h ([1]; CYP3A5*3*6*7 Intermediate group (N 23)): 41 ng/mL
concentration at 12 h ([1]; CYP3A5*3*6*7 Poor group (N 35)): 32 ng/mL
concentration at 12 h ([1]; Overall (N 65)): 37 ng/mL
Compound: COc1c(C)c2c(c(O)c1C/C=C(\C)CCC(=O)O)C(=O)OC2 [MPA, mycophenolic acid]

Compound: C=CC[C@@H]1/C=C(\C)C[C@H](C)C[C@H](OC)[C@H]2O[C@@](O)(C(=O)C(=O)N3CCCC[C@H]3C(=O)O[C@H](/C(C)=C/[C@@H]3CC[C@@H](O)[C@H](OC)C3)[C@H](C)[C@@H](O)CC1=O)[C@H](C)C[C@@H]2OC [tacrolimus]
clearance (clinical; 1.58 mg): 6 mL/min/kg
clearance (clinical; 2.45 mg): 8 mL/min/kg
AUC0–12 Dose [2, 5]: 23.95 (8.30) ng.hr/ml/mg
C12hr/dose [2, 5]: 1.43 (0.55) ng/ml/mg
CL_F [2, 5]: 48.23 (4.32) L/hr
Cmax/Dose [2, 5]: 3.36 (1.19) ng/ml
AUC0–12 Dose [2, 6]: 36.76 (6.43) ng.hr/ml/mg
AUC* [2, 6]: 130.75 (9.73) ng.hr/ml
C12hr/dose [2, 6]: 2.16 (0.43) ng/ml/mg
CL_F [2, 6]: 31.30 (3.35) L/hr
Cmax/Dose [2, 6]: 5.21 (0.92) ng/ml
AUC0–12 Dose [2, 7]: 56.39 (5.64) ng.hr/ml/mg
C12hr/dose [2, 7]: 3.44 (0.37) ng/ml/mg
CL_F [2, 7]: 22.61 (2.94) L/hr
Cmax/Dose [2, 7]: 7.20 (0.81) ng/ml
AUC0–12 Dose [2, 8]: 28.97 (8.30) ng.hr/ml/mg
AUC* [2, 8]: 129.45 (12.57) ng.hr/ml
C12hr/dose [2, 8]: 1.57 (0.55) ng/ml/mg
CL_F [2, 8]: 39.53 (4.32) L/hr
Cmax/Dose [2, 8]: 4.95 (1.19) ng/ml
AUC0–12 Dose [2, 9]: 42.94 (6.43) ng.hr/ml/mg
C12hr/dose [2, 9]: 2.40 (0.43) ng/ml/mg
CL_F [2, 9]: 24.49 (3.35) L/hr
Cmax/Dose [2, 9]: 6.61 (0.92) ng/ml
AUC0–12 Dose [2, 10]: 56.80 (4.55) ng.hr/ml/mg
C12hr/dose [2, 10]: 3.30 (0.30) ng/ml/mg
CL_F [2, 10]: 20.09 (2.37) L/hr
Cmax/Dose [2, 10]: 8.09 (0.65) ng/ml
effect of ABCB1 3435 T allele on tacrolimus clearance ([2]; across all 3 CYP3A5 metabolic composite groups, P = 0.040): significantly reduced
Tmax ([2]; both sexes, 2.46 mg, ABCB1 3534 CC, CYP3A5 Poor (N 13)): 1.94 h
Tmax ([2]; both sexes, 4 mg, ABCB1 3534 CC, CYP3A5 Intermediate (N 10)): 1.87 h
Tmax ([2]; both sexes, 5.67 mg, ABCB1 3534 CC, CYP3A5 Extensive (N 6)): 1.78 h
AUC ([2]; 2.35 mg, ABCB1 3435 CT and TT, CYP3A5 Poor (N 20)): 118 ng·h/mL
Cmax [2, 11]: 17 ng/mL
Tmax [2, 11]: 1.72 h
concentration at 12 h [2, 11]: 6.81 ng/mL
clearance [2, 11]: 6.5 mL/min/kg
AUC ([2]; 2.46 mg, ABCB1 3435 CC, CYP3A5 Poor (N 13)): 117 ng·h/mL
Cmax [2, 12]: 15.7 ng/mL
concentration at 12 h [2, 12]: 6.94 ng/mL
clearance [2, 12]: 6.17 mL/min/kg
AUC ([2]; 3.55 mg, ABCB1 3435 CT and TT, CYP3A5 Intermediate (N 10)): 150 ng·h/mL
Cmax [2, 13]: 23.3 ng/mL
Tmax [2, 13]: 2.29 h
concentration at 12 h [2, 13]: 8.37 ng/mL
clearance [2, 13]: 6.83 mL/min/kg
Cmax [2, 14]: 18.6 ng/mL
concentration at 12 h [2, 14]: 7.55 ng/mL
clearance [2, 14]: 9.17 mL/min/kg
Cmax [2, 15]: 23.7 ng/mL
Tmax [2, 15]: 2.03 h
concentration at 12 h [2, 15]: 6.58 ng/mL
clearance [2, 15]: 13.2 mL/min/kg
AUC ([2]; 5.67 mg, ABCB1 3435 CC, CYP3A5 Extensive (N 6)): 122 ng·h/mL
Cmax [2, 16]: 17 ng/mL
concentration at 12 h [2, 16]: 7.4 ng/mL
clearance [2, 16]: 15 mL/min/kg
C max/Dose, phenotypic mean [95% CI] ([3]; ABCB1 variant haplotype TTT): 4.06[3.19 – 4.93] ng/ml/mg
AUC0–4, phenotypic mean [95% CI] ([3]; ABCB1 variant haplotype TTT): 43.9 [33.4 – 54.4] ng.hr/ml/mg
AUC*, phenotypic mean [95% CI] ([3]; ABCB1 variant haplotype TTT): 92.2 [74.6 – 109.8] ng.hr/ml/mg
CL_F, phenotypic mean [95% CI] ([3]; ABCB1 variant haplotype TTT): 13.99 [7.87 – 20.11]* L/hr
C max/Dose, phenotypic mean [95% CI] ([3]; ABCB1 wild type haplotype CGC): 3.01[2.42 – 3.59] ng/ml/mg
AUC0–4, phenotypic mean [95% CI] ([3]; ABCB1 wild type haplotype CGC): 36.59 [30.2 – 42.9] ng.hr/ml/mg
AUC*, phenotypic mean [95% CI] ([3]; ABCB1 wild type haplotype CGC): 80.0[68.8 – 91.1] ng.hr/ml/mg
CL_F, phenotypic mean [95% CI] ([3]; ABCB1 wild type haplotype CGC): 20.4 [14.5 – 26.3]* L/hr
patients with 12-h tacrolimus exposures <120 ng.hr/ml ([4]; Blacks, 10/33): 30%
AUC* lower in Extensive than Poor metabolizers ([4]; P < 0.001): 50%
patients with 12-h tacrolimus exposures <120 ng.hr/ml ([4]; Whites, 17/32): 53%
patients exhibiting AUC0–12 h below the recommended therapeutic range ([4]; all patients, in spite of achieving target troughs): approximately 40%
dose normalized trough (Cp12hr/dose), Poor compared to Extensive Metabolizers ([4]; greater in Poor, P = 0.0016): 2.5 fold
dose-adjusted AUC0–12 h, Poor compared to Extensive metabolizers ([4]; higher in Poor, P < 0.001): 2 fold
patients within the therapeutic trough range ([4]; target range >4 ng/ml and <15 ng/ml): 64 of 65
